Data as given in the supplement of paper PMC11208160.

Assay: recombinant UMI read abundance after kanamycin selection (control-corrected) (log10(CPM+1)); higher = more efficient recombination; extreme values may be limits of the assay; sequences stand for … in AGTGCAGAGAAAATCGGCCAGTTTTCTCTGCCTGCAGTCCGCATGCCGTGGGACCCCTTGGGTTCTAACCTGTTGCCTAGATTTATGCAGCGGACTGCCTTTCTCCCAAAGTGATAAACCGG…AGGTTGGTTTCACT; site = the 11-nt donor
Description: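 Pooled E. coli donor-specificity screen for the IS621 bridge recombinase. Each library member carries a reprogrammed 11-nt donor and a full-length LE bridge RNA expressed in cis from the natural promoter, with a paired donor-binding loop (8-nt LDG + 4-nt RDG) and a target-binding loop fixed to T5. It is co-electroporated with a T5 target plasmid; recombinase is induced with 0.07 mM IPTG and recombinants are selected on kanamycin. UMIs are counted as CPM, averaged over two biological replicates and corrected by the unselected control. Molecule = full bridge RNA written as DNA, built from the T5 scaffold: LDG = donor specificity nt 1-8, RDG = reverse complement of nt 8-11.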
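Also: IS621 bridge recombinase in Escherichia coli cells against a fixed T5 target plasmid.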

In order of falling “recombinant UMI read abundance (log10)” value:
1. ACAGTCTCATGGACCGGTTTTCCCGGTAATCCGTATTTGGA (site ACAGTCTCTTC)  2.89
2. ACAGTGTCATGGACCGGTTTTCCCGGTAATCCGTATTTGCC (site ACAGTGTCTGG)  2.88
3. ACAATATCATGGACCGGTTTTCCCGGTAATCCGTATTTGCA (site ACAATATCTTG)  2.85
4. ACAGCATCATGGACCGGTTTTCCCGGTAATCCGTATTTGTA (site ACAGCATCTTA)  2.85
5. ACAGTAGCATGGACCGGTTTTCCCGGTAATCCGTATTTGCA (site ACAGTAGCTTG)  2.85
6. ACAGAGACATGGACCGGTTTTCCCGGTAATCCGTATTTGCG (site ACAGAGACTCG)  2.84
7. ACAGTATCATGGACCGGTTTTCCCGGTAATCCGTATTTGCT (site ACAGTATCTAG)  2.8
8. ACATACGCATGGACCGGTTTTCCCGGTAATCCGTATTTGGC (site ACATACGCTGC)  2.78
9. ACAAGGGCATGGACCGGTTTTCCCGGTAATCCGTATTTGAC (site ACAAGGGCTGT)  2.69
10. ACACGAGCATGGACCGGTTTTCCCGGTAATCCGTATTTGTC (site ACACGAACTGA)  2.63
11. ACAAGTGCATGGACCGGTTTTCCCGGTAATCCGTATTTGAC (site ACAAGTGCTGT)  2.62
12. ACACGAGCATGGACCGGTTTTCCCGGTAATCCGTATTTGTC (site ACACGAGCTGA)  2.61
13. ACAGTAGCATGGACCGGTTTTCCCGGTAATCCGTATTTGCA (site ACAGTAACTTG)  2.58
14. ACAGTTTCATGGACCGGTTTTCCCGGTAATCCGTATTTGCA (site ACAGTATCTTG)  2.55
15. ACAATCTCATGGACCGGTTTTCCCGGTAATCCGTATTTGCA (site ACAATCTCTTG)  2.51
16. ACAGAATCATGGACCGGTTTTCCCGGTAATCCGTATTTGGA (site ACAGAATCTTC)  2.48
17. ACAGTTTCATGGACCGGTTTTCCCGGTAATCCGTATTTGCA (site ACAGTCTCTTG)  2.43
18. ACAAGGACATGGACCGGTTTTCCCGGTAATCCGTATTTGCG (site ACAAGGACTCG)  2.42
19. ACAATATCATGGACCGGTTTTCCCGGTAATCCGTATTTGCA (site ACAGTATCTTG)  2.35
20. ACAGTATCATGGACCGGTTTTCCCGGTAATCCGTATTTGCT (site ACAGTATCTGG)  2.29
21. ACACGAGCATGGACCGGTTTTCCCGGTAATCCGTATTTGTC (site ACACGATCTGA)  2.27
22. ACAGTTTCATGGACCGGTTTTCCCGGTAATCCGTATTTGCA (site ACAGTTTCTTG)  2.24
23. ACAGTATCATGGACCGGTTTTCCCGGTAATCCGTATTTGCT (site ACAGTATCTTG)  2.22
24. ACAGAATCATGGACCGGTTTTCCCGGTAATCCGTATTTGCT (site ACAGAATCTAG)  2.19
25. ACAGAGACATGGACCGGTTTTCCCGGTAATCCGTATTTGCG (site CCAGAGACTCG)  2.19
26. ACAGAGACATGGACCGGTTTTCCCGGTAATCCGTATTTGCG (site TCAGAGACTCG)  2.18
27. ACAGTGTCATGGACCGGTTTTCCCGGTAATCCGTATTTGCC (site ACAGTATCTTG)  2.05
28. ACAGTAGCATGGACCGGTTTTCCCGGTAATCCGTATTTGCA (site ACAGTATCTTG)  2
29. ACAGTGGCATGGACCGGTTTTCCCGGTAATCCGTATTTGCG (site ACAGTGGCTCG)  1.93
30. ACAATATCATGGACCGGTTTTCCCGGTAATCCGTATTTGCA (site ACACTATCTTG)  1.83
31. ACAATATCATGGACCGGTTTTCCCGGTAATCCGTATTTGCA (site ACATTATCTTG)  1.81
32. ACAGTTGCATGGACCGGTTTTCCCGGTAATCCGTATTTGCA (site ACAGTTGCTTG)  1.81
33. ACACATCCATGGACCGGTTTTCCCGGTAATCCGTATTTGAA (site ACACATCCTTT)  1.72
34. ACACTTCCATGGACCGGTTTTCCCGGTAATCCGTATTTGAC (site ACACATCCTGT)  1.66
35. ACAATCTCATGGACCGGTTTTCCCGGTAATCCGTATTTGCA (site ACAGTATCTTG)  1.54
36. ACAGTTTCATGGACCGGTTTTCCCGGTAATCCGTATTTGCA (site ACAGTGTCTTG)  1.52
37. ACACTTCCATGGACCGGTTTTCCCGGTAATCCGTATTTGAC (site ACACCTCCTGT)  1.29
38. ACAGATACATGGACCGGTTTTCCCGGTAATCCGTATTTGCC (site ACAGATACTGG)  1.19
39. ACAGAGACATGGACCGGTTTTCCCGGTAATCCGTATTTGCG (site GCAGAGACTCG)  1.18
40. ACAGTATCATGGACCGGTTTTCCCGGTAATCCGTATTTGCT (site ACAGTATCTCG)  1.11
41. ACAGGGCCATGGACCGGTTTTCCCGGTAATCCGTATTTGCT (site ACAGGGCCTAG)  1.1
42. ACACTTCCATGGACCGGTTTTCCCGGTAATCCGTATTTGAC (site ACACGTCCTGT)  1.08
43. ACACTAGCATGGACCGGTTTTCCCGGTAATCCGTATTTGCA (site ACACTAGCTTG)  1.05
44. ACAGGTCCATGGACCGGTTTTCCCGGTAATCCGTATTTGGC (site ACAGGTCCTGC)  1.02
45. ACAGAATCATGGACCGGTTTTCCCGGTAATCCGTATTTGCT (site ACAGTATCTTG)  0.97
46. ACACATCCATGGACCGGTTTTCCCGGTAATCCGTATTTGAG (site ACACATCCTCT)  0.668
47. ACACATCCATGGACCGGTTTTCCCGGTAATCCGTATTTGAG (site ACACATCCTAT)  0.549
48. ACACTTACATGGACCGGTTTTCCCGGTAATCCGTATTTGGG (site ACACTTACTCC)  0.464
49. ACAGCGCCATGGACCGGTTTTCCCGGTAATCCGTATTTGTT (site ACAGCGCCTAA)  0.431
50. ACATCGACATGGACCGGTTTTCCCGGTAATCCGTATTTGTG (site ACATCAACTCA)  0.397
51. ACACATCCATGGACCGGTTTTCCCGGTAATCCGTATTTGAG (site ACACATCCTTT)  0.381
52. ACACTTCCATGGACCGGTTTTCCCGGTAATCCGTATTTGAC (site ACACTTCCTGT)  0.338
53. ACACATCCATGGACCGGTTTTCCCGGTAATCCGTATTTGAA (site ACACATCCTAT)  0.229
54. ACACCTACATGGACCGGTTTTCCCGGTAATCCGTATTTGTG (site ACACCTACTCA)  0.165
55. ACACCTACATGGACCGGTTTTCCCGGTAATCCGTATTTGTG (site ACATCTACTCA)  0.028
56. ACACCTACATGGACCGGTTTTCCCGGTAATCCGTATTTGTG (site ACAGCTACTCA)  0.0267
57. ACATCGACATGGACCGGTTTTCCCGGTAATCCGTATTTGTG (site ACATCCACTCA)  0.0171
58. ACACCTACATGGACCGGTTTTCCCGGTAATCCGTATTTGTG (site ACAACTACTCA)  0.0154
59. ACACACCCATGGACCGGTTTTCCCGGTAATCCGTATTTGTG (site ACACACCCTCA)  0.012
60. ACACTAGCATGGACCGGTTTTCCCGGTAATCCGTATTTGCA (site ACAGTATCTTG)  0.00925
61. ACAAGAACATGGACCGGTTTTCCCGGTAATCCGTATTTGTC (site ACAGGAACTGA)  0
62. ACAAGAACATGGACCGGTTTTCCCGGTAATCCGTATTTGTC (site ACATGAACTGA)  0
63. ACAAGTTCATGGACCGGTTTTCCCGGTAATCCGTATTTGTC (site ACAAGTTCTGA)  0
64. ACACATCCATGGACCGGTTTTCCCGGTAATCCGTATTTGAA (site ACACATCCTCT)  0
65. ACACATCCATGGACCGGTTTTCCCGGTAATCCGTATTTGAA (site ACACATCCTGT)  0
66. ACACATCCATGGACCGGTTTTCCCGGTAATCCGTATTTGAG (site ACACATCCTGT)  0
67. ACACGAGCATGGACCGGTTTTCCCGGTAATCCGTATTTGTC (site ACACGACCTGA)  0
68. ACAGAATCATGGACCGGTTTTCCCGGTAATCCGTATTTGGA (site ACAGTATCTTG)  0
69. ACAGCATCATGGACCGGTTTTCCCGGTAATCCGTATTTGTA (site ACAGTATCTTG)  0
70. ACAGTAGCATGGACCGGTTTTCCCGGTAATCCGTATTTGCA (site ACAGTACCTTG)  0
71. ACAGTCTCATGGACCGGTTTTCCCGGTAATCCGTATTTGGA (site ACAGTATCTTG)  0
72. ACAGTTGCATGGACCGGTTTTCCCGGTAATCCGTATTTGCA (site ACAGTATCTTG)  0
